In ChEMBL document CHEMBL4316632, “Antiplasmodial Diterpenoids from Psiadia arguta” (J Nat Prod, 2019):

tested on: Plasmodium falciparum; experiment: Antiplasmodial activity against Plasmodium falciparum 3D7 assessed as reduction in parasite viability incubated for 48 hrs by APAD colorimetric test; type: functional, organism-based; conditions: 3D7, 48 h

Row | SMILES | IC50
1 | CC(=O)OCC[C@@H](C)CC[C@@H]1[C@@]2(C)CCCC(C)(C)[C@@H]2CC[C@@]1(C)O | 33.2 µM
2 | C/C(=C\CO)CC[C@@H]1[C@@]2(C)CCCC(C)(C)[C@@H]2CC[C@@]1(C)O | 36.6 µM
3 | CCC(C)CC(=O)OCCC(C)CC[C@@H]1[C@@]2(C)CCCC(C)(C)[C@@H]2CC[C@@]1(C)O (some centres undefined) | 54.8 µM
4 | CC(=O)OC/C=C(\C)CC[C@@H]1[C@@]2(C)CCCC(C)(C)[C@@H]2CC[C@@]1(C)O | 29.1 µM
5 | CC(CCOC(=O)CC(C)CC[C@H]1[C@]2(C)CCCC(C)(C)[C@H]2CC[C@]1(C)O)CC[C@@H]1[C@@]2(C)CCCC(C)(C)[C@@H]2CC[C@@]1(C)O (some centres undefined) | > 50 µg/mL
6 | CCC(C)C(=O)OCCC(C)CC[C@@H]1[C@@]2(C)CCCC(C)(C)[C@@H]2CC[C@@]1(C)O (some centres undefined) | 58 µM
7 | CC(CCOC=O)CC[C@@H]1[C@@]2(C)CCCC(C)(C)[C@@H]2CC[C@@]1(C)O (some centres undefined) | 73 µM
8 | C[C@H](CCO)CC[C@@H]1[C@@]2(C)CCCC(C)(C)[C@@H]2CC[C@@]1(C)O [LABDANEDIOL] | 22.2 µM
9 | C=C[C@](C)(O)CC[C@@H]1[C@@]2(C)CCCC(C)(C)[C@@H]2CC[C@@]1(C)O [SCLAREOL] | 35 µM
